Key:
in vitro = conditions: chlorocebus sabaeus, Vero E6 (Vero C1008) cells
SARS-CoV-2 [1] = test: microbe, parasite or virus in culture; assay type: functional, organism-based, Chlorocebus sabaeus, Vero C1008; conditions: Severe acute respiratory syndrome coronavirus 2, Vero C1008, 48 h
SARS-CoV-2 [2] = test: microbe, parasite or virus in culture; conditions: Severe acute respiratory syndrome coronavirus 2, Vero C1008, 48 h

Compound | CC50 at 48 h (in vitro; CC50) [µM] | CC50 at 48 h (in vitro; pCC50) [µM] | IC50 (SARS-CoV-2 [1]; read-out: IC50) [µM] | IC50 (SARS-CoV-2 [1]; read-out: pIC50 (converted)) [µM] | IC50 (SARS-CoV-2 [2]) [µM] | IC50 (SARS-CoV-2 [2]; read-out: pIC50 (converted)) [µM]
CN(C)CC/C=C1/c2ccccc2Sc2ccc(Cl)cc21 [CHLORPROTHIXENE] | 13.8 | 13.8 | > 100 | > 100 | 7.08 | 7.08
Clc1ccc(C(c2ccccc2)N2CCN(C/C=C/c3ccccc3)CC2)cc1 (stereo not drawn) [CLOCINIZINE] | 21.9 | 21.9 | 20.9 | 20.9 | > 100 | > 100
CN1CCC(=C2c3ccccc3Oc3ccc(Cl)cc32)CC1 [CLOPIPAZAN] | 15 | 14.8 | > 100 | > 100 | > 20 | > 20
CCN(CC)CCNC(=O)c1cc(Cl)c(NC(=O)COc2ccc(Cl)cc2)cc1OC [CLOXACEPRIDE] | 2.85 | 2.82 | > 100 | > 100 | 3.63 | 3.63
C[C@H]1[C@H]2CC[C@H]3[C@@H]4CC=C5C[C@@H](N(C)C)CC[C@]5(C)[C@H]4CC[C@]23CN1C [CONESSINE] | 34.7 | 34.7 | > 25.1 | > 25.1 | 12 | 12
COc1cc(/C=C/C(=O)CC(=O)/C=C/c2ccc(O)c(OC)c2)ccc1O [CURCUMIN] | 14.8 | 14.8 | > 100 | > 100 | > 100 | > 100
NC(=O)C(c1ccccc1)(c1ccccc1)[C@@H]1CCN(CCc2ccc3c(c2)CCO3)C1 [DARIFENACIN] | 56.2 | 56.2 | > 100 | > 100 | > 25.1 | > 25.1
CCN(CC)CCOC1(c2ccccc2)CCN(CCNc2ccccc2)CC1 [DIAMOCAINE] | 46.8 | 46.8 | 22.4 | 22.4 | ~9.55 | ~9.55
CCCCOc1cc(C(=O)NCCN(CC)CC)c2ccccc2n1 [DIBUCAINE] | ~39.6 | ~39.8 | ~29.5 | ~29.5 | 29.1 | 28.8
Oc1cc2c(cc1O)[C@H]1c3ccccc3CN[C@@H]1CC2 [DIHYDREXIDINE] | 18.6 | 18.6 | > 100 | > 100 | 7.94 | 7.94
COc1cc(C(=O)OCCCN2CCCN(CCCOC(=O)c3cc(OC)c(OC)c(OC)c3)CC2)cc(OC)c1OC [DILAZEP] | ~28.2 | ~28.2 | > 100 | > 100 | > 100 | > 100
O=C(Nc1ccccc1)OCC(CN1CCCCC1)OC(=O)Nc1ccccc1 (stereo not drawn) [DIPERODON] | > 25.1 | > 25.1 | > 25.1 | > 25.1 | 15.1 | 15.1
c1ccc(C(c2ccccc2)N2CCN(CCCC3(c4ccccc4)OCCO3)CC2)cc1 [DOTARIZINE] | 17.4 | 17.4 | 10 | 10 | > 20 | > 20
CN(C)CC/C=C1\c2ccccc2CSc2ccccc21 [DOTHIEPIN] | 20 | 20 | > 25.1 | > 25.1 | 16.6 | 16.6
COc1cccc2c1C(=O)c1c(O)c3c(c(O)c1C2=O)C[C@@](O)(C(=O)CO)C[C@@H]3O[C@H]1C[C@H](N)[C@H](O)[C@H](C)O1 [DOXORUBICIN] | 64.6 | 64.6 | ~33.1 | ~33.1 | 8.04 | 7.94
NC(=O)C1CN(CCCCC(c2ccc(F)cc2)c2ccc(F)cc2)CCN1CC(=O)Nc1c(Cl)cc(N)cc1Cl (stereo not drawn) [DRAFLAZINE] | 9.66 | 9.55 | > 100 | > 100 | > 100 | > 100
CCCCc1oc2ccc(NS(C)(=O)=O)cc2c1C(=O)c1ccc(OCCCN(CCCC)CCCC)cc1 [DRONEDARONE] | 3.85 | 3.8 | > 100 | > 100 | ~3.02 | ~3.02
O=C(N[C@H]1CN2CCC1CC2)c1cc2cccc(Cl)c2s1 [ENCENICLINE] | 20.9 | 20.9 | > 100 | > 100 | > 100 | > 100
Cc1cc(-c2ccc(/N=N/c3ccc4c(S(=O)(=O)O)cc(S(=O)(=O)O)c(N)c4c3O)c(C)c2)ccc1/N=N/c1ccc2c(S(=O)(=O)O)cc(S(=O)(=O)O)c(N)c2c1O [EVANS BLUE FREE ACID] | 18 | 17.8 | > 100 | > 100 | > 100 | > 100

Compound | CC50 at 48 h (in vitro; CC50) [µM] | CC50 at 48 h (in vitro; pCC50) [µM] | IC50 (SARS-CoV-2 [1]; read-out: IC50) [µM] | IC50 (SARS-CoV-2 [1]; read-out: pIC50 (converted)) [µM] | IC50 (SARS-CoV-2 [2]) [µM] | IC50 (SARS-CoV-2 [2]; read-out: pIC50 (converted)) [µM]
COc1ccc2cc1Oc1ccc(cc1)C[C@H]1c3cc(c(OC)cc3CCN1C)Oc1c(OC)c(OC)cc3c1[C@H](C2)N(C)CC3 [FANCHININ] | 5.17 | 5.13 | > 50.1 | > 50.1 | 3.98 | 3.98
CC1=C(/C=C/C(C)=C/C=C/C(C)=C/C(=O)Nc2ccc(O)cc2)C(C)(C)CCC1 [FENRETINIDE] | 5.01 | 5.01 | 2.95 | 2.95 | > 100 | > 100
CN(C)CCCn1cc(-c2ccccc2)c(-c2ccccc2)n1 [FEZOLAMINE] | 39.8 | 39.8 | > 100 | > 100 | 14.5 | 14.5
CCOC(=O)Nc1ccc(NCc2ccc(F)cc2)nc1N [FLUPIRTINE] | > 100 | > 100 | > 100 | > 100 | > 100 | > 100
OC(CCCN1CCc2c(c3cc(F)ccc3n2-c2ccc(F)cc2)C1)c1ccc(F)cc1 (stereo not drawn) [FLUTROLINE] | 6.92 | 6.92 | > 100 | > 100 | 4.68 | 4.68
COc1cc2c(cc1OC)C(c1cccc(Cl)c1)=NN=C(C)C2 [GIRISOPAM] | > 100 | > 100 | > 100 | > 100 | > 100 | > 100
CCN(CC)Cc1ccc2cc(COC(=O)Nc3ccc(C(=O)NO)cc3)ccc2c1 [GIVINOSTAT] | 0.767 | 0.759 | > 100 | > 100 | 10.5 | 10.5
CCn1cc(-c2ccnc3[nH]c(-c4cccc(CN(C)C)c4)cc23)c(-c2ccc(NC(=O)N(C)C)cc2)n1 [GSK-1070916] | 9.33 | 9.33 | > 100 | > 100 | > 100 | > 100
CCN(CC)CCOc1ccc(-c2nc3cc(Cl)ccc3s2)cc1 [HALETHAZOLE] | 3.72 | 3.72 | > 100 | > 100 | ~3.89 | ~3.89
CCCCN(CCCC)CCC(O)c1cc2c(Cl)cc(Cl)cc2c2cc(C(F)(F)F)ccc12 (stereo not drawn) [HALOFANTRINE] | 11.5 | 11.5 | ~9.12 | ~9.12 | 9.55 | 9.55
CN1CCCN(C(c2ccccc2)c2ccc(Cl)cc2)CC1 (stereo not drawn) [HOMOCHLORCYCLIZINE] | 21.1 | 20.9 | > 25.1 | > 25.1 | > 20 | > 20
CC[C@H]1CN2CC[C@H]1C[C@H]2[C@H](O)c1ccnc2ccc(OC)cc12 [HYDROQUININE] | > 25.1 | > 25.1 | > 25.1 | > 25.1 | 15.5 | 15.5
CCN(CCO)CCCC(C)Nc1ccnc2cc(Cl)ccc12 (stereo not drawn) [HYDROXYCHLOROQUINE] | 47.9 | 47.9 | ~17.1 | ~17 | ~11.6 | ~11.5
COc1ccc2c(c1)c(CC(=O)O)c(C)n2C(=O)c1ccc(Cl)cc1 [INDOMETHACIN] | > 100 | > 100 | > 100 | > 100 | > 100 | > 100
CO[C@H]1CC[C@H](n2c([C@@H]3CCCC(=O)N3c3ccc(F)c(F)c3)nc3cc(-c4c(C)noc4C)ccc32)CC1 [INOBRODIB] | 3.16 | 3.16 | > 100 | > 100 | > 100 | > 100
CC(C)(C)c1cc(C(C)(C)C)c(NC(=O)c2c[nH]c3ccccc3c2=O)cc1O [IVACAFTOR] | 4.62 | 4.57 | > 25.1 | > 25.1 | 4.57 | 4.57
Clc1ccc(-c2nn(Cc3ccccc3)c3c2CCNCC3)cc1 [JNJ-18038683 FREE BASE] | 14.6 | 14.5 | > 25.1 | > 25.1 | > 25.1 | > 25.1
CCCCCCC(C)(C)c1cc(O)c2c(c1)OC(C)(C)[C@@H]1CC=C(C(=O)O)C[C@@H]21 [LENABASUM] | ~21.4 | ~21.4 | > 100 | > 100 | > 100 | > 100
Clc1cnn(CCCCN2CCN(c3ncccn3)CC2)c1 [LESOPITRON] | > 100 | > 100 | > 100 | > 100 | 2.34 | 2.34
